Reference: PMC3136713, “Health-Beneficial Phenolic Aldehyde in Antigonon leptopus Tea” (Evidence-based Complementary and Alternative Medicine : eCAM, 2010)

How the values were obtained:
COX-1 [1] = target: T1, COX-1 (Ovis aries, UniProt P05979); assay: O2 uptake cyclooxygenase assay, ram seminal vesicle COX-1; […] inhibition at […]; type: biochemical
T1 construct: gene PTGS1
T1 sequence (P05979 25-600): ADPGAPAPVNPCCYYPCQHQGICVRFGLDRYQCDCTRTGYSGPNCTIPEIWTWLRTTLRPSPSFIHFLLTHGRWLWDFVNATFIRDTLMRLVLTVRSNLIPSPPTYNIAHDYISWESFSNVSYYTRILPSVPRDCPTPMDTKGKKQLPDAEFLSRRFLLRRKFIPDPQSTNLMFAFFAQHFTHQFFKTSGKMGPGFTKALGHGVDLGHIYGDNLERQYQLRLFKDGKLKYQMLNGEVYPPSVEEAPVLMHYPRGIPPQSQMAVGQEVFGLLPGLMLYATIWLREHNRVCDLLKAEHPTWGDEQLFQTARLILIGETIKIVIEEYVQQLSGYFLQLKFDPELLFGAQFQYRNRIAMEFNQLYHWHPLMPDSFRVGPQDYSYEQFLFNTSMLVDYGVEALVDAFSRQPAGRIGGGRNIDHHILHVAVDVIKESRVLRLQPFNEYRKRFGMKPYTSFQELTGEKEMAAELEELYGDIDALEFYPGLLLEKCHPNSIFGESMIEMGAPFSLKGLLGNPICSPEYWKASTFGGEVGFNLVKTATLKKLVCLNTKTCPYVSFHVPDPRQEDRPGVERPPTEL

COX-2 [2] = target: T2, COX-2 (Homo sapiens, UniProt P35354); assay: biochemical; details: read-out: % inhibition at 32 nM
T2 construct: gene PTGS2
T2 sequence (P35354 18-604): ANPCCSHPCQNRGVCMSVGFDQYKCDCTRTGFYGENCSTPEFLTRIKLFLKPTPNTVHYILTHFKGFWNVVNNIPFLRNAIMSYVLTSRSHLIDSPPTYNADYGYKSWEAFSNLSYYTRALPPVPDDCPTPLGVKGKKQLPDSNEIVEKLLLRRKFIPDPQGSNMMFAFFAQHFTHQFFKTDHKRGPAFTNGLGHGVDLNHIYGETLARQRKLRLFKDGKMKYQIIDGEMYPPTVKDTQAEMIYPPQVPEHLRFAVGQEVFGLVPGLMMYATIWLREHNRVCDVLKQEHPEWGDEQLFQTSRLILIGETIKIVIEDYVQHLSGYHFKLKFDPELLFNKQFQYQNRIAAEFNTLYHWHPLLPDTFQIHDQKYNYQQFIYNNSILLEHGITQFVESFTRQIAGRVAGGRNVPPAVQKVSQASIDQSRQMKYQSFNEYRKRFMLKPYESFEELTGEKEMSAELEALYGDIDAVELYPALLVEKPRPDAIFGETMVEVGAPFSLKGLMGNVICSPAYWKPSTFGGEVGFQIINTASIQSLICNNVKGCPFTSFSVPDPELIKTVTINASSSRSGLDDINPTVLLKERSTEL

COX-1 [3] = target: T1, COX-1; assay: O2 uptake cyclooxygenase assay, single concentration; type: biochemical; details: for inhibition at 100 µg/mL: read-out: % inhibition at 100 μg/mL
COX-2 [4] = target: T2, COX-2; assay: as above; type: biochemical; details: read-out: % inhibition at 100 μg/mL

| SMILES | inhibition at 100 µg/mL (COX-1 [3]) [%] | further results |
| --- | --- | --- |
| CC(=O)Oc1ccccc1C(=O)O [Aspirin] | – | % inhibition at 60 μM (COX-1 [1]): 69 |
| CS(=O)(=O)c1ccc(C2=C(c3ccccc3)C(=O)OC2)cc1 [Vioxx] | – | inhibition at 0.032 µM (COX-2 [2]): 91% |
| O=Cc1cccc(O)c1O [compound 5, 2,3-dihydroxy benzaldehyde] | 68 | – |
| O=Cc1cc(O)ccc1O [compound 7, 2,5-dihydroxy benzaldehyde] | – | inhibition at 100 µg/mL (COX-2 [4]): 61% |
| O=Cc1cc(O)cc(O)c1 [compound 9, 3,5-dihydroxy benzaldehyde] | 82 | – |
| O=Cc1c(O)cc(O)cc1O [compound 11, 2,4,6-trihydroxy benzaldehyde] | – | % inhibition at 100 μg/mL (COX-1 [3]): 86 |
| COc1ccccc1C=O [compound 14, Compound 14] | 83 | – |
| COc1cc(C=O)cc(OC)c1 [compound 21, Compound 21] | 85 | – |
